The test system of data set [1] is Neuron. Nature of the data set: Neuroprotective activity against degeneration of rat DA neurons assessed as […] immunopositive neurons at 10 nM by immunofluorescence staining relative to control. It is filed as functional.
For data set [2], the system named is Neuron. The data set is described as follows: Neuritogenic effect in rat DA neurons assessed as total neurite length per […] immunopositive neurons at 10 nM relative to control. It counts as functional.
Data set [3] in a line: Antioxidant activity assessed as ABTS radical scavenging activity. It counts as functional.
Data set [4] has as its system Neuron. The data set is described as follows: Antioxidant activity in mesecephalic neuron assessed as ROS production at 10 nM by dihydrorhodamine-123 incorporation assay relative to control. It is filed as functional.
For data set [5], the system named is Neuron. Nature of the data set: Antioxidant activity in mesecephalic neuron assessed as ROS production at 10 uM by dihydrorhodamine-123 incorporation assay relative to control. It counts as functional.
For data set [6], the system named is Neuron. Nature of the data set: Neuroprotective activity against degeneration of rat DA neurons assessed as […] immunopositive neurons immunofluorescence staining at 200 nM relative to control. It counts as functional.
Data set [7] deals with Neuron. Nature of the data set: Neuritogenic effect in rat DA neurons assessed as total neurite length per […] immunopositive neurons at 200 nM relative to control. It is filed as functional.
For the next data set, the system named is Brain. The data set is described as follows: Biodistribution in Swiss mouse brain at 150 mg/kg, iv. It counts as ADME, organism-based. Also noted: dose 150 mg/kg, route intravenous. The following applies: in vivo.
For a further data set, the species on record is Mus musculus. The data set is described as follows: Toxicity in Swiss mouse assessed as change in body weight, food intake. It counts as organism-based. The following applies: in vivo.

For the compound `CCCCCCCCCCCCCCCC(=O)NCCc1c[nH]c2ccccc12`, the figures for the Activity in the data set on Neuron [1], in the data set on Neuron [2] and in the data set on Neuron [4] were 121.3%, 168.6% and 55.9%, respectively. The IC50 in [3] is above 1000 µM.

Regarding `CCCCCCCCCCCCCCCCCCCCCCC(=O)NCCc1c[nH]c2ccccc12`, the Activity in the data set on Neuron [1] came out at 114%; with Neuron [2], 145.4%.

Consider `CCCCCCCCCCCCCCC(=O)NCCc1c[nH]c2ccccc12`, for which the Activity is on record as 99.3% in the data set on Neuron [1] and 139% with Neuron [2].

As to `Cc1c(C)c2c(c(C)c1O)CCC(C)(C(=O)O)O2` (stereo unspecified) [TROLOX], in the data set with Neuron [5], the Activity came to 44%. Also, the IC50 in data set [3] turned out to be 550 µM.

With `O=C(CCCCCCCCCCCCCCO)NCCc1c[nH]c2ccccc12`, the Activity in the data set with Neuron [1] was 108%; in the data set with Neuron [2] it was 159.3%; with Neuron [4] it was 60.9%. In data set [3], the IC50 is above 1000 µM.

For the compound `CCCCCCCCCCCCC(=O)NCCc1c[nH]c2ccccc12`, the Activity in the data set with Neuron [1] came to 98.5%; in the data set on Neuron [2], 126.2%. In addition, the IC50 in data set [3] is above 1000 µM.

As for `CCCCCCCCCCCCCCCCC(=O)NCCc1c[nH]c2ccccc12`, the Activity is on record as 106% in the data set with Neuron [1] and 136% with Neuron [2].

On to `CCCC(=O)Nc1ncnc2c1ncn2[C@@H]1O[C@@H]2COP(=O)(O)O[C@H]2[C@H]1OC(=O)CCC` [BUCLADESINE], for which the Activity is given as 149.9% with Neuron [6] and 333.1% with Neuron [7].

On to `CCCCCCCCCCCCCCCCCCCC(=O)NCCc1c[nH]c2ccccc12`, for which the Activity with Neuron [1] is 121.8%; with Neuron [2], 147.4%.

For `CCCCCCCCCCCCCCCCCCCCCCCNCCc1c[nH]c2ccccc12`, the Activity in the data set on Neuron [1] turned out to be 129.6%; in the data set on Neuron [2], 141.2%. The IC50 in [3] stood at 670 µM.

On to `OCCCCCCCCCCCCCCCNCCc1c[nH]c2ccccc12`, for which the results for the Activity in the data set on Neuron [1], with Neuron [2] and in the data set with Neuron [4] were 129.4%, 160.8% and 43.7%, respectively. Moreover, the IC50 in data set [3] is 730 µM.

Take `CCCCCCCCCCCCCNCCc1c[nH]c2ccccc12`: the Activity with Neuron [1] is 92.8%; in the data set with Neuron [2], 121.2%. In addition, the IC50 in data set [3] was determined as 810 µM.

Take `CCCCCCCCCCCCCCCCNCCc1c[nH]c2ccccc12`: the Activity in the data set on Neuron [1] is given as 131.9%; in the data set on Neuron [2], 197%; in the data set on Neuron [4], 47.8%; in the data set filed under Mus musculus, “Non-toxic”. Further, in [3], the IC50 came out at 620 µM. In the data set with Brain, the Drug uptake was 21.8 ng/mL.

For `CCCCCCCCCCCCCCCCCC(=O)NCCc1c[nH]c2ccccc12`, the results for the Activity with Neuron [1] and in the data set on Neuron [2] were 110% and 149.9%, respectively.

Take `CCCCC/C=C\C/C=C\CCCCCCCCNCCc1c[nH]c2ccccc12`: the figures for the Activity in the data set with Neuron [1], with Neuron [2] and in the data set on Neuron [4] were 137.5%, 156.7% and 44%, respectively. In addition, the IC50 in [3] is 340 µM.

For the compound `CCCCCCCCCCCCCCCNCCc1c[nH]c2ccccc12`, the Activity turned out to be 106% in the data set on Neuron [1] and 132.7% in the data set with Neuron [2].

For the compound `CCCCCCCCCCCCCCCCCCNCCc1c[nH]c2ccccc12`, the Activity in the data set on Neuron [1] is on record as 129.9%; with Neuron [2] it was 157.3%.

With `CCCCC/C=C\C/C=C\CCCCCCCC(=O)NCCc1c[nH]c2ccccc12`, the Activity in the data set on Neuron [1] is recorded as 111.4%; in the data set on Neuron [2], 154%; in the data set on Neuron [4] it was 56.5%.

`CCCCCCCCCCCCCCCCCCCCNCCc1c[nH]c2ccccc12`: the Activity in the data set on Neuron [1] was found to be 128.9%; in the data set on Neuron [2], 132.6%.

In the case of `CCCCCCCCCCCCCCCCCNCCc1c[nH]c2ccccc12`, the Activity with Neuron [1] is on record as 110.6%; with Neuron [2], 139%.
